{"source": "patent US20210361224A1", "about": "“BIOLOGICAL GAS (VOCs) MEASURMENT DEVICE” (National University Corporation Tokyo Medical and Dental …, priority 2017, published 2021)", "key": {"[1]": {"details": "compared with ethanol in exhaled breath, test subject ingested 0.4 g/kg of body weight of ethanol by drinking"}, "[2]": {"details": "palm of hand; 0.4 g of ethanol per kilogram of body weight orally ingested; measured 10 to 40 minutes after drinking"}}, "note": "Like-named read-outs stand apart in the source and are kept apart here.", "data": [{"smiles": "CCO", "note": "[ethanol]", "values": [{"measurement": "delay until the amount of ethanol contained in skin gas peaks", "setting": "[1]; collector attached to back of hand", "value": "approximately 23 minutes"}, {"measurement": "delay until the amount of ethanol contained in skin gas peaks", "setting": "[1]; collector attached to wrist on the palm side", "value": "approximately 18 minutes"}, {"measurement": "time after drinking at which concentration of ethanol released from the skin reached a peak value", "setting": "[2]", "value": 32, "unit": "min"}]}]}
